# Measurements as given in EP4445909B1, “PHARMACEUTICAL FORMULATION CONSISTING OF C-PEPTIDE COMBINED WITH A BISPHOSPHONATE IN A SINGLE FORM AND ITS USE IN THE TREATMENT OF OSTEOSARCOPENIA” (Università Degli Studi Magna Graecia di Catanzaro, priority 2023, dated 2026).
# Legend:
# Assay type in all cases: in vivo
# [1] = test system: muscle fibers of the Gastrocnemius (GC), Thiabialis (TA) and the long finger extensor muscle (EDL); assay: Muscle fibre morphometry (CSA, perimeter, Minimum Feret diameter) after C-Peptide administration in diabetic rats; settings: 72 nmol/kg/24 h for 42 days
# Method: The experimental tests carried out by the Applicant have shown that the administration of 72 nmol/kg/24 h of C-Peptide for 42 days improves the cross-sectional area (CSA), the perimeter and the Minimum Feret diameter of the muscle fibers of the Gastrocnemius (GC), Thiabialis (TA) and the long finger extensor muscle (EDL) in diabetic rats. Specifically, the mean CSA of the GC fibers decreased by 39.5% in the diabetic group, while only 6.6% in the rats of the C-peptide group. The CSA of the TA and EDL muscles was reduced, in the C-peptide group, by 10% and 11%, respectively, while a reduction of 65% and 45% occurred in the diabetic group, compared to the control animals. Similar results were obtained with the other parameters (perimeter and Minimum Feret diameter).
# bone = assay: Micro-CT of trabecular bone in diabetic rats after C-peptide administration; settings: 72 nmol/kg/24 h, compared to the diabetes only group (D-CTR)
# serum ubiquitin = assay: Serum ubiquitin in diabetic rats after C-peptide administration; settings: 72 nmol/kg/24 h for 42 days
substance,measurement,setting,value
C-peptide,"cross-sectional area (CSA), perimeter and Minimum Feret diameter of the muscle fibers of GC, TA and EDL",[1],improves
same,mean CSA of the GC fibers decreased,"[1]; Gastrocnemius, diabetic group decreased by 39.5%",6.6%
same,CSA of the EDL muscle reduced,"[1]; compared to the control animals, diabetic group 45%",11%
same,CSA of the TA muscle reduced,"[1]; compared to the control animals, diabetic group 65%",10%
same,trabecular spaces,bone; p=0.01,reduction
same,trabecular thickness,bone; p=0.04,better
same,"serum ubiquitin, induced by diabetes",serum ubiquitin,prevents the increase
